Laboratory results as given in patent US20200113181A1, “HERBICIDAL COMPOUNDS” (SYNGENTA PARTICIPATIONS AG, priority 2016, published 2020).

Assays:
Assay type in all cases: in vivo
[1] = tested on: Alopecurus myosuroides (ALOMY); test: Glasshouse herbicide test, pre- and post-emergence, Alopecurus myosuroides; settings: 250 g/h, evaluated after 13 days; for ALOMY POST, percentage damage caused to the plant (five point scale): post-emergence; for ALOMY PRE, percentage damage caused to the plant (five point scale): pre-emergence
Experimental: (§1) Seeds of a variety of test species are sown in standard soil in pots (Lolium perenne (LOLPE), Setaria faberi (SETFA), Alopecurus myosuroides (ALOMY), Echinochloa crus-galli (ECHCG), Avena fatua (AVEFA)). After cultivation for one day (pre-emergence) or after 8 days cultivation (post-emergence) under controlled conditions in a glasshouse (at 24/16° C., day/night; 14 hours light; 65% humidity), the plants are sprayed with an aqueous spray solution derived from the formulation of the technical active ingredient in acetone/water (50:50) solution containing 0.5% Tween 20 (polyoxyethelyene sorbitan monolaurate, CAS RN 9005-64-5). Compounds are applied at […]. The test plants are then grown in a glasshouse under controlled conditions in a glasshouse (at 24/16° C., day/night; 14 hours light; 65% humidity) and watered twice daily. After 13 days for pre and post-emergence, the test is evaluated for the percentage damage caused to the plant. The biological activities are shown in the following table on a five point scale (5=80-100%; 4=60-79%; 3=40-59%; 2=20-39%; 1=0-19%).

[2] = tested on: Avena fatua (AVEFA); test: Glasshouse herbicide test, pre- and post-emergence, Avena fatua; settings: 250 g/h, evaluated after 13 days; for AVEFA POST, percentage damage caused to the plant (five point scale): post-emergence; for AVEFA PRE, percentage damage caused to the plant (five point scale): pre-emergence
Experimental: as §1

[3] = tested on: Lolium perenne (LOLPE); test: Glasshouse herbicide test, pre- and post-emergence, Lolium perenne; settings: 250 g/h, evaluated after 13 days; for LOLPE POST, percentage damage caused to the plant (five point scale): post-emergence; for LOLPE PRE, percentage damage caused to the plant (five point scale): pre-emergence
Experimental: as §1

[4] = tested on: Echinochloa crus-galli (ECHCG); test: Glasshouse herbicide test, pre- and post-emergence, Echinochloa crus-galli; settings: 250 g/h, evaluated after 13 days; for ECHCG POST, percentage damage caused to the plant (five point scale): post-emergence; for ECHCG PRE, percentage damage caused to the plant (five point scale): pre-emergence
Experimental: as §1

[5] = tested on: Setaria faberi (SETFA); test: Glasshouse herbicide test, pre- and post-emergence, Setaria faberi; settings: 250 g/h, evaluated after 13 days; for SETFA POST, percentage damage caused to the plant (five point scale): post-emergence; for SETFA PRE, percentage damage caused to the plant (five point scale): pre-emergence
Experimental: as §1

[6] = tested on: wheat plants (Triticum aestivum (TRZAW)); test: Crop phytotoxicity, wheat plants treated post-emergence
Experimental: as §1
Using procedures outlines above, wheat plants (Triticum aestivum (TRZAW) are treated post-emergence with compound 1.2 of the present invention or compound A-18 from WO 2013/079708. The results outlined in Table B2 below show % phytotoxicity observed and that compound 1.2 of the present invention is less damaging to wheat compared to compound A-18 disclosed in WO2013/079708.

[7] = tested on: soybean plants (Glycine max (GLYMX)); test: Crop phytotoxicity, soybean plants treated post-emergence
Experimental: [The procedure below names another organism; the source says it served here with some conditions changed.] as §1

Structure (SMILES) | ALOMY POST, percentage damage caused to the plant (five point scale) [1] | ALOMY PRE, percentage damage caused to the plant (five point scale) [1] | AVEFA POST, percentage damage caused to the plant (five point scale) [2] | AVEFA PRE, percentage damage caused to the plant (five point scale) [2] | LOLPE POST, percentage damage caused to the plant (five point scale) [3] | LOLPE PRE, percentage damage caused to the plant (five point scale) [3] | ECHCG POST, percentage damage caused to the plant (five point scale) [4] | ECHCG PRE, percentage damage caused to the plant (five point scale) [4] | SETFA POST, percentage damage caused to the plant (five point scale) [5] | SETFA PRE, percentage damage caused to the plant (five point scale) [5] | TRZAW % Phyto ([6]; rate 4 g/ha) | TRZAW % Phyto ([6]; rate 16 g/ha) | TRZAW % Phyto ([6]; rate 63 g/ha) | GLYMX % Phyto ([7]; rate 15 g/ha) | GLYMX % Phyto ([7]; rate 30 g/ha) | GLYMX % Phyto ([7]; rate 60 g/ha)
CC#Cc1ccc(C2C(=O)[C@@H]3[C@H](C2=O)[C@H]2CC[C@@H]3O2)c(OCCC)c1 (mixture of isomers) [Compound 1.31] | 5 (5=80-100%) | 5 (5=80-100%) | 5 (5=80-100%) | 5 (5=80-100%) | 5 (5=80-100%) | 5 (5=80-100%) | 5 (5=80-100%) | 5 (5=80-100%) | 5 (5=80-100%) | 5 (5=80-100%) | – | – | – | – | – | –
CC#Cc1ccc(C2C(=O)[C@@H]3[C@H](C2=O)[C@H]2CC[C@@H]3O2)c(OCCOC)c1 (mixture of isomers) [Compound 1.32] | 4 (4=60-79%) | 1 (1=0-19%) | 5 (5=80-100%) | 4 (4=60-79%) | 5 (5=80-100%) | 4 (4=60-79%) | 5 (5=80-100%) | 3 (3=40-59%) | 5 (5=80-100%) | 3 (3=40-59%) | – | – | – | – | – | –
CC#Cc1ccc(C2C(=O)[C@@H]3[C@H](C2=O)[C@@H]2O[C@H]3C[C@]2(C)OC)c(OC)c1 (mixture of isomers) [Compound 1.33] | 5 (5=80-100%) | 5 (5=80-100%) | 5 (5=80-100%) | 5 (5=80-100%) | 5 (5=80-100%) | 5 (5=80-100%) | 5 (5=80-100%) | 5 (5=80-100%) | 5 (5=80-100%) | 5 (5=80-100%) | – | – | – | – | – | –
CC#Cc1ccc(C2C(=O)[C@@H]3[C@@H]4O[C@@H](C[C@@H]4COC)[C@@H]3C2=O)c(OC)c1 (stereo in doubt) [Compound 1.19, 8-methoxymethyl-4-[2-methoxy-4-(prop-1-yn-1-yl)phenyl]-10-oxatricyclo[5.2.1.0^2,6]decane-3,5-dione] | 5 (5=80-100%) | 5 (5=80-100%) | 5 (5=80-100%) | 5 (5=80-100%) | 5 (5=80-100%) | 5 (5=80-100%) | 5 (5=80-100%) | 5 (5=80-100%) | 5 (5=80-100%) | 5 (5=80-100%) | – | – | – | – | – | –
CC#Cc1ccc(C2C(=O)[C@@H]3[C@H](C2=O)[C@H]2CC[C@@H]3O2)c(OC)c1 (stereo partly drawn) [Compound 1.2, 4-[2-methoxy-4-(prop-1-yn-1-yl)phenyl]-10-oxatricyclo[5.2.1.0^2,6]decane-3,5-dione] | – | – | 5 (5=80-100%) | 5 (5=80-100%) | 5 (5=80-100%) | 5 (5=80-100%) | 5 (5=80-100%) | 5 (5=80-100%) | 5 (5=80-100%) | 5 (5=80-100%) | 20% | 70% | 60% | – | – | –
CC#Cc1ccc(C2C(=O)[C@@H]3[C@H](C2=O)[C@@]2(C)CC[C@]3(C)O2)c(OC)c1 (stereo partly drawn) [Compound 1.11] | 5 (5=80-100%) | 5 (5=80-100%) | 5 (5=80-100%) | 3 (3=40-59%) | 5 (5=80-100%) | 4 (4=60-79%) | 5 (5=80-100%) | 3 (3=40-59%) | 5 (5=80-100%) | 3 (3=40-59%) | – | – | – | – | – | –
CC#Cc1ccc(C2C(=O)[C@H]3[C@@H]4CC[C@@](C)(O4)[C@H]3C2=O)c(OC)c1 (stereo partly drawn) [Compound 1.21] | 4 (4=60-79%) | 4 (4=60-79%) | 5 (5=80-100%) | 4 (4=60-79%) | 4 (4=60-79%) | 4 (4=60-79%) | 5 (5=80-100%) | 3 (3=40-59%) | 5 (5=80-100%) | 4 (4=60-79%) | – | – | – | – | – | –
CC#Cc1ccc(C2C(=O)[C@H]3[C@@H]4CC[C@@](C)(O4)[C@H]3C2=O)c(OC)c1 (stereo partly drawn) [Compound 1.22] | 5 (5=80-100%) | 5 (5=80-100%) | 5 (5=80-100%) | 5 (5=80-100%) | 5 (5=80-100%) | 5 (5=80-100%) | 5 (5=80-100%) | 5 (5=80-100%) | 5 (5=80-100%) | 5 (5=80-100%) | – | – | – | – | – | –
CC#Cc1ccc(C2C(=O)[C@@H]3[C@@H]4O[C@@H](C[C@H]4CC)[C@@H]3C2=O)c(OC)c1 (stereo partly drawn) [Compound 1.23] | 5 (5=80-100%) | 5 (5=80-100%) | 5 (5=80-100%) | 5 (5=80-100%) | 5 (5=80-100%) | 5 (5=80-100%) | 5 (5=80-100%) | 5 (5=80-100%) | 5 (5=80-100%) | 5 (5=80-100%) | – | – | – | – | – | –
CC#Cc1ccc(C2C(=O)[C@@H]3[C@@H]4O[C@@H](C[C@H]4CC)[C@@H]3C2=O)c(OC)c1 (stereo partly drawn) [Compound 1.24] | – | 5 (5=80-100%) | 5 (5=80-100%) | – | – | 5 (5=80-100%) | – | 5 (5=80-100%) | – | 5 (5=80-100%) | – | – | – | – | – | –
CC#Cc1cc(C)c(C2C(=O)[C@@H]3[C@H](C2=O)[C@H]2CC[C@@H]3O2)c(C)c1 (stereo partly drawn) [Compound A-18, reference compound] | – | – | – | – | – | – | – | – | – | – | 60% | 100% | 100% | 40% | 60% | 80%
